Reference: patent US11072598B2, “Somatostatin modulators and uses thereof” (CRINETICS PHARMACEUTICALS, INC., priority 2017, dated 2021)

Columns and labels:
hSSTR4 = molecular target: T1, hSSTR4 (Homo sapiens, UniProt P31391); test: inhibition of cAMP via hSSTR4; type: cell-based; conditions: selectivity for inhibition of cAMP via hSSTR2 vs. hSSTR4
T1 construct: expressed in transfected cells
Description: General overview: All five SSTR subtypes are Gi coupled G-protein coupled receptors (GPCRs) that lead to decreases in intracellular cyclic AMP (cAMP) when activated by an agonist. Therefore, measurement of intracellular cAMP levels can be used to assess whether compounds of the invention are agonists of SSTR subtypes (John Kelly, Troy Stevens, W. Joseph Thompson, and Roland Seifert, Current Protocols in Pharmacology, 2005, 2.2.1-2.2). One example of an intracellular cAMP assay is described below. cAMP assay protocol:
Four days prior to the assay, 5,000 Chinese hamster ovary cells (CHO-K1, ATCC #CCL-61) stably expressing the human somatostatin receptor subtype 2 are plated in each well of a 96-well tissue culture-treated plate in Ham's F12 growth media (ThermoFisher #10-080-CM) supplemented with 10% donor bovine serum (Gemini Bio-Products #100-506), 100 U/mL penicillin; 100 ug/mL streptomycin; 2 mM L-glutamine (Gemini Bio-Products #400-110) and 0.2 mg/mL hygromycin B (GoldBio #31282-04-9). The cells are cultured at 37° C., 5% CO2 and 95% humidity. On the day of the assay, the media is aspirated and the cells are treated with 50 μL of 1.6 μM NKH477 (Sigma #N3290) plus various dilutions of compounds of the invention in assay buffer [1× Hank's Balanced Salt Solution (ThermoFisher #SH3058802), 0.5 mM HEPES pH 7.4, 0.1% bovine serum albumin, 0.2 mM 3-Isobutyl-1-methylxanthine (IBMX, VWR #200002-790)]. The cells are incubated for 20 minutes at 37° C. (the final concentration of the compounds of the invention are typically 0-10,000 nM). The cells are treated with 50 μL of lysis buffer (HRTF cAMP kit, Cisbio). The lysate is transferred to 384-well plates and cAMP detection and visualization antibodies are added and incubated for 1-24 hours at room temperature. The time-resolved fluorescent signal is read with a Tecan M1000Pro multiplate reader. The intracellular cAMP concentrations are calculated by regression to a standard curve and are plotted vs. the concentration of the compounds of the invention and the EC50 of the compounds are calculated using standard methods. All data manipluations are in GraphPad Prism v6.

[1] = molecular target: T2, human somatostatin receptor subtype 2 (Homo sapiens, UniProt P30874); test: cAMP functional assay for SSTR2 agonists; type: cell-based; conditions: inhibition of cAMP activities via human SST2 receptor (SSTR2), CHO-K1 cells; read-out: EC50
T2 construct: expressed in transfected cells
T2 sequence (P30874 whole entry): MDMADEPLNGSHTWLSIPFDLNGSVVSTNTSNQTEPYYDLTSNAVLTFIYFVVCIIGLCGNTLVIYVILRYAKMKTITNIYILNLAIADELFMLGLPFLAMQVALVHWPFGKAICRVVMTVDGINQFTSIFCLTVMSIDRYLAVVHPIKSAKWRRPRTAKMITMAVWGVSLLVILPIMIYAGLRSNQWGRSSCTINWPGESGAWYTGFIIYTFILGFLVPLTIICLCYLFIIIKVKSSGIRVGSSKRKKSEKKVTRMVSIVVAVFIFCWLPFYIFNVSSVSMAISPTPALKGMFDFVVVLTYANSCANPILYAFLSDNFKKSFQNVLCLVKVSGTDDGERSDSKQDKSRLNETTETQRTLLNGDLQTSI
Procedure, shortened: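 CHO-K1 cells stably expressing human SSTR2 were treated for 20 min at 37 °C with compound plus NKH477 (added as 1.6 μM) in HBSS with IBMX. Intracellular cAMP was measured by HTRF against a standard curve. EC50 values came from concentration-response curves.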

T1 sequence (P31391 whole entry): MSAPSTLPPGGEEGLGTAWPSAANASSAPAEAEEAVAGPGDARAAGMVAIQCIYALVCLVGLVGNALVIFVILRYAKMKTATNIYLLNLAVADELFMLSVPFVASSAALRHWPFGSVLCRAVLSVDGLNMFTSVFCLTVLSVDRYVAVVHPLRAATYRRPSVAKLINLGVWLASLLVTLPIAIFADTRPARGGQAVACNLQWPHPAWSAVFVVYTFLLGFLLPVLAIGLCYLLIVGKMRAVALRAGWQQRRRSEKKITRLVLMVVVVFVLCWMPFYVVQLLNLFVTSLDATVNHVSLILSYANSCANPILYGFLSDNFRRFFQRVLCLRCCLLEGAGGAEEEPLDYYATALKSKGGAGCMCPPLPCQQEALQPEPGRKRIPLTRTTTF

| Compound | hSST4/hSST2 (ratio) (hSSTR4) | EC50 [1] |
| --- | --- | --- |
| CCn1c(-c2c(N)ncc(-c3cc(C)cc(F)c3)c2N2CCC(N)CC2)nc2cc(F)c(F)cc21 [Compound 1-5, 4-(4-aminopiperidin-1-yl)-3-(1-ethyl-5,6-difluoro-1H-1,3-benzodiazol-2-yl)-5-(3-fluoro-5-methylphenyl)pyridin-2-amine] | b (between 15 and 50) | < 10 nM |
| COc1ccc2[nH]c(-c3c(OC)ncc(-c4cc(C)cc(F)c4)c3N3CCC(N)CC3)nc2c1 [Compound 2-3, 1-[5-(3-fluoro-5-methylphenyl)-2-methoxy-3-(5-methoxy-1H-1,3-benzodiazol-2-yl)pyridin-4-yl]piperidin-4-amine] | a (above 50) | < 10 nM |
| COc1cc(F)cc2nc(-c3c(N4CC(F)C4)ncc(-c4cc(C)cc(F)c4)c3N3CCC(N)CC3)[nH]c12 [Compound 4-7, 1-[3-(5-fluoro-7-methoxy-1H-1,3-benzodiazol-2-yl)-5-(3-fluoro-5-methylphenyl)-2-(3-fluoroazetidin-1-yl)pyridin-4-yl]piperidin-4-amine] | a (above 50) | < 10 nM |
| COc1ncc(-c2cc(C)cc(F)c2)c(N2CCC(N)CC2)c1-c1nc2cc(F)ccc2[nH]1 [Compound 2-1, 1-[3-(5-fluoro-1H-1,3-benzodiazol-2-yl)-5-(3-fluoro-5-methylphenyl)-2-methoxypyridin-4-yl]piperidin-4-amine] | a (above 50) | < 10 nM |
| Cc1cc(F)cc(-c2cnc(N)c(-c3nc4cccc(C)c4[nH]3)c2N2CCC(N)CC2)c1 [Compound 1-10, 4-(4-aminopiperidin-1-yl)-5-(3-fluoro-5-methylphenyl)-3-(7-methyl-1H-1,3-benzodiazol-2-yl)pyridin-2-amine] | c (between 2.5 and 15) | < 10 nM |
| COc1cc(F)cc2nc(-c3c(C)ncc(-c4cc(C)cc(F)c4)c3N3CCC(N)CC3)[nH]c12 [Compound 2-15, 1-[3-(5-fluoro-7-methoxy-1H-1,3-benzodiazol-2-yl)-5-(3-fluoro-5-methylphenyl)-2-methylpyridin-4-yl]piperidin-4-amine] | c (between 2.5 and 15) | < 10 nM |
| Cc1cc(F)cc(-c2cnc(N3CCOCC3)c(-c3nc4cc(F)cc(F)c4[nH]3)c2N2CCC(N)CC2)c1 [Compound 4-8, 1-[3-(5,7-difluoro-1H-1,3-benzodiazol-2-yl)-5-(3-fluoro-5-methylphenyl)-2-(morpholin-4-yl)pyridin-4-yl]piperidin-4-amine] | a (above 50) | < 10 nM |
| Cc1cc(F)cc(-c2cnc(N)c(-c3nc4cc(F)c(F)cc4n3C)c2N2CCC(N)CC2)c1 [Compound 1-57, 4-(4-aminopiperidin-1-yl)-3-(5,6-difluoro-1-methyl-1H-1,3-benzodiazol-2-yl)-5-(3-fluoro-5-methylphenyl)pyridin-2-amine] | a (above 50) | < 10 nM |
| COCCNc1ncc(-c2cc(C)cc(F)c2)c(N2CCC(N)CC2)c1-c1nc2c(F)cc(F)cc2[nH]1 [Compound 1-56] | a (above 50) | < 10 nM |
| Cc1cc(F)cc(-c2cnc(N)c(-c3nc4cc(F)c(F)cc4[nH]3)c2N2CCC(N)CC2)c1 [Compound 1-3, 4-(4-aminopiperidin-1-yl)-3-(5,6-difluoro-1H-1,3-benzodiazol-2-yl)-5-(3-fluoro-5-methylphenyl)pyridin-2-amine] | b (between 15 and 50) | < 10 nM |
| CCNc1ncc(-c2cc(C)cc(F)c2)c(N2CCC(N)CC2)c1-c1nc2cc(F)cc(F)c2[nH]1 [Compound 1-49, 4-(4-aminopiperidin-1-yl)-3-(5,7-difluoro-1H-1,3-benzodiazol-2-yl)-N-ethyl-5-(3-fluoro-5-methylphenyl)pyridin-2-amine] | a (above 50) | < 10 nM |
| Cc1cc(F)cc(-c2cnc(N)c(-c3nc4cc(F)cc(OCC#N)c4[nH]3)c2N2CCC(N)CC2)c1 [Compound 1-74, 2-({2-[2-amino-4-(4-aminopiperidin-1-yl)-5-(3-fluoro-5-methylphenyl)pyridin-3-yl]-5-fluoro-1H-1,3-benzodiazol-7-yl}oxy)acetonitrile] | c (between 2.5 and 15) | < 10 nM |
| COc1ncc(-c2cc(C)cc(F)c2)c(N2CCC(N)CC2)c1-c1nc2cc(Cl)ccc2[nH]1 [Compound 2-2, 1-[3-(5-chloro-1H-1,3-benzodiazol-2-yl)-5-(3-fluoro-5-methylphenyl)-2-methoxypyridin-4-yl]piperidin-4-amine] | a (above 50) | < 10 nM |
| CNc1ncc(-c2cc(C)cc(F)c2)c(N2CCC(N)CC2)c1-c1nc2cccc(OC)c2[nH]1 [Compound 1-71, 4-(4-aminopiperidin-1-yl)-5-(3-fluoro-5-methylphenyl)-3-(7-methoxy-1H-1,3-benzodiazol-2-yl)-N-methylpyridin-2-amine] | c (between 2.5 and 15) | < 10 nM |
| COc1cc(F)cc2nc(-c3c(N(C)C)ncc(-c4cc(C)cc(F)c4)c3N3CCC(N)CC3)[nH]c12 [Compound 4-6, 4-(4-aminopiperidin-1-yl)-3-(5-fluoro-7-methoxy-1H-1,3-benzodiazol-2-yl)-5-(3-fluoro-5-methylphenyl)-N,N-dimethylpyridin-2-amine] | b (between 15 and 50) | < 10 nM |
| COc1ncc(-c2cc(C)cc(F)c2)c(N2CCC(N)CC2)c1-c1nc2cc(F)cc(F)c2[nH]1 [Compound 2-5, 1-[3-(5,7-difluoro-1H-1,3-benzodiazol-2-yl)-5-(3-fluoro-5-methylphenyl)-2-methoxypyridin-4-yl]piperidin-4-amine] | a (above 50) | < 10 nM |
| CNc1ncc(-c2cc(C)cc(F)c2)c(N2CCC(N)CC2)c1-c1nc2cc(F)c(F)cc2[nH]1 [Compound 1-55, 4-(4-aminopiperidin-1-yl)-3-(5,6-difluoro-1H-1,3-benzodiazol-2-yl)-5-(3-fluoro-5-methylphenyl)-N-methylpyridin-2-amine] | a (above 50) | < 10 nM |
| CCNc1ncc(-c2cc(C)cc(F)c2)c(N2CCC(N)CC2)c1-c1nc2cc(Cl)ccc2[nH]1 [Compound 1-30, 4-(4-aminopiperidin-1-yl)-3-(5-chloro-1H-1,3-benzodiazol-2-yl)-N-ethyl-5-(3-fluoro-5-methylphenyl)pyridin-2-amine] | a (above 50) | < 10 nM |
| CNc1ncc(-c2cc(C)cc(F)c2)c(N2CCC(N)CC2)c1-c1nc2cc(Cl)ccc2[nH]1 [Compound 1-28, 4-(4-aminopiperidin-1-yl)-3-(5-chloro-1H-1,3-benzodiazol-2-yl)-5-(3-fluoro-5-methylphenyl)-N-methylpyridin-2-amine] | a (above 50) | < 10 nM |
| COc1cc(F)cc2[nH]c(-c3c(N)ncc(-c4cc(C)cc(F)c4)c3N3CCC(N)CC3)nc12 [Compound 1-58, 4-(4-aminopiperidin-1-yl)-3-(6-fluoro-4-methoxy-1H-1,3-benzodiazol-2-yl)-5-(3-fluoro-5-methylphenyl)pyridin-2-amine] | c (between 2.5 and 15) | < 10 nM |
